Assay results from patent US12213984B2, “Immunoregulatory agent” (KYUSHU UNIVERSITY, NATIONAL UNIVERSITY CORPORATION, priority 2015, dated 2025).

How the values were obtained:
[1] = biological target: T1, DOCK2DHR-2 (lobe B and lobe C of the DHR-2 domain of DOCK2) (Homo sapiens, UniProt Q92608); assay: in-vitro GEF assay, Rac activation by DOCK2 DHR-2 domain with various steroid compounds (Experimental Example 2); format: biochemical; details: IC50 against the Rac activation by DOCK2DHR-2, Experimental Example 2, Table 1
T1 construct: polypeptide fragments corresponding to a DHR-2 domain including the lobe B and the lobe C of DOCK2; Histidine-SUMO (N); made in house; host or cells: E. coli Arctic express DE3 (pET28a); Rac in E. coli BL21 DE3 (pGEX-6P-1)
T1 sequence (Q92608 1196-1622): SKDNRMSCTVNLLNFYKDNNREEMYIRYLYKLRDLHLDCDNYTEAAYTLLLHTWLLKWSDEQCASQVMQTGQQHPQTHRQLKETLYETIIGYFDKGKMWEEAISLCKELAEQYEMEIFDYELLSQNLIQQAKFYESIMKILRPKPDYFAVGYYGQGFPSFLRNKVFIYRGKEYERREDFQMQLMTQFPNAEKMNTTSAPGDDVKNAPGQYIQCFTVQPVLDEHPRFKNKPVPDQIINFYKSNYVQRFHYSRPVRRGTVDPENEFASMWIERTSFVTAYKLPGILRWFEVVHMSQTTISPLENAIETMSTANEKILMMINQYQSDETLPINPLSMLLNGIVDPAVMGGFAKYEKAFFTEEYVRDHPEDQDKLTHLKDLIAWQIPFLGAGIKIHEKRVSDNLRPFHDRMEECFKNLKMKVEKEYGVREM
Method: An examination was performed using various steroid compounds to test their effects on the Rac activation induced by proteins composed of the lobe B and the lobe C of the DHR-2 domain of DOCK2.
As the steroid compounds, cholesterol 3-sulfate (hereinafter, referred to as “C3S” in some cases), cholesterol, cholesterol 3-acetate (hereinafter, referred to as “C3A” in some cases), pregnenolone 3-sulfate (hereinafter, referred to as “PREG3S” in some cases), dehydroepiandrosterone (hereinafter, referred to as “DHEA” in some cases), dehydroepiandrosterone 3-sulfate (hereinafter, referred to as “DHEA3S” in some cases), estrone 3-sulfate (hereinafter, referred to as “Estrone3S” in some cases), estriol 3-sulfate (hereinafter, referred to as “Estriol3S” in some cases), and estradiol 3-sulfate (hereinafter, referred to as “Estradiol3S” in some cases) were used.
More specifically, a DOCK2-DHR-2 domain protein prepared by the same method as described above was incubated for 20 minutes at room temperature in the presence of various steroid compounds at a predetermined concentration dissolved in DMSO or in the presence of DMSO alone (control) under the shielded condition from light, thereby preparing a pretreated substance of GEF. The concentration of DMSO was adjusted such that it became 3% (1% in the final reaction solution) in all samples. Then, by in-vitro GEF assay in which Rac and Bodipy-FL-GTP prepared by the same method as described above were used, Rac activation by the DHR-2 domain was measured.

Trio = biological target: T2, Trio (Homo sapiens, UniProt O75962); assay: in-vitro GEF assay, Rac activation by Trio (Experimental Example 1); format: biochemical
T2 construct: a DH-PH domain of the Trio protein and the Tiam protein; Histidine-SUMO (N); made in house; host or cells: E. coli Arctic express DE3 (pET28a)
Method: The selectivity of the effect of inhibiting the GEF of DOCK2 by cholesterol 3-sulfate was examined. All of DOCK2, Trio, and Tiam are GEFs activating Rac. In the presence of serially diluted cholesterol 3-sulfate, the Rac activation ability of a DOCK2 protein, a Trio protein, and a Tiam protein was measured by in-vitro GEF assay. For the in-vitro GEF assay, a labeled GTP (trade name, “Bodipy-FL-GTP”, manufactured by Invitrogen) was used, because it has a property of increasing fluorescence intensity when binds to Rac by the action of GEF. […]
During the reaction, the change in the fluorescence intensity of Bodipy-FL-GPT was monitored using a spectrofluorometer Enspire manufactured by PerkinElmer Inc (excitation wavelength: 488 nm, emission wavelength: 514 nm). By calculation, the values obtained by the measurement were corrected such that the fluorescence intensity became 0 at a reaction starting point (0 second).
Then, by using software (trade name “GraphPad Prism 5”, manufactured by GraphPad Software Inc.), an approximation curve was created which is obtained in a case where the calculated corrected values are plotted on the y-axis and time (t) is plotted on the x-axis. […]

CC(C)CCC[C@@H](C)[C@H]1CC[C@H]2[C@@H]3CC=C4C[C@@H](OS(=O)(=O)O)CC[C@]4(C)[C@H]3CC[C@]12C [C3S, cholesterol 3-sulfate]
IC50 [1]: 2000 nM
IC50 (Trio): > 300 µM
